{"source": "patent US20090137554A1", "about": "“1,4,5,6-TETRAHYDRO -PYRROLO[2,3-d]AZEPINES AND -IMIDAZO[4,5-d]AZEPINES AS MODULATORS OF NUCLEAR RECEPTOR ACTIVITY” (Wyeth, priority 2007, published 2009)"}
{"biological_target": "T1, Gal4/hFXR fusion protein (Homo sapiens, UniProt Q96RI1)", "T1 sequence (Q96RI1 262-486 limits assumed)": "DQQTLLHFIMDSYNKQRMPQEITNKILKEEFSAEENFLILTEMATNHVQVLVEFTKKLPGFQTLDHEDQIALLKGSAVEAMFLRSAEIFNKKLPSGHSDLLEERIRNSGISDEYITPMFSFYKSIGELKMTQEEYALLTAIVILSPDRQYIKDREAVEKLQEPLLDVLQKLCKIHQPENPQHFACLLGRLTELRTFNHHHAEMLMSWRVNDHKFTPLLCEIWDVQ", "experiment": "Gal4/hFXR fusion protein agonist activity in human 293 cells (luciferase reporter)", "assay_type": "cell-based", "conditions": "Human 293 stable clone 2 expressing Gal4/hFXR, 24 hours incubation", "protocol": "Characterization of Compounds for Gal4/hFXR Fusion Protein Agonist Activity in Human 293 Cells\n• 1. Compounds to be tested are prepared as 2× stocks in assay medium. • 2. […] The supernatant is removed and the cells are resuspended in 1 ml assay medium. The cells are counted and diluted in assay medium to 200,000 cells per ml. The cells are then plated at 10,000 cells per well in Culturplate-96 plates in 50 μL assay medium. The cells are incubated at 37° C. for approximately 1 hour. • 3. […] All assays include 1 uM GW4064 as a reference standard. • 4. Cells are incubated for 24 hours at 37° C.\n• 5. The medium is removed, and the cells are lysed in 25 uL lysis buffer (Promega, E3971). • 6. The plates are analyzed for luciferase activity with luciferase assay reagent (Promega E1483). Plates are read on Victor^3V instrument using the protocol “Shuguang Luciferase assay” (dispense volume=100 uL, plate type=“Packard Viewplate”, measurement height=8 mm from bottom of plate, 5 second read per well).\n• 1. For agonist single point screening, data are analyzed in Excel. Each compound is tested in triplicate. The fold stimulation of each compound is calculated as RLUcpd/RLUbkgd. • 2. Comparison to GW4064 is made by the equation (RLUcpd/RLUbkgd)/(RLUGW4064/RLUbkgd) • 3. For agonist potency determinations, statistical analysis of the data is performed using a customized Excel/SAS program.", "units": {"EC50": "nM"}}
{"smiles": "CC(C)OC(=O)C1=CN(C(=O)c2ccc(F)c(F)c2)CC(C)(C)c2cc(C#N)[nH]c21", "note": "[Example 1, iso-Propyl 2-cyano-6-(3,4-difluorobenzoyl)-4,4-dimethyl-1,4,5,6-tetrahydropyrrolo[2,3-d]azepine-8-carboxylate]", "EC50": 5.3}
{"smiles": "CC(C)OC(=O)C1=CN(C(=O)c2cccs2)CC(C)(C)c2cc(C#N)[nH]c21", "note": "[Example 7, iso-Propyl 2-cyano-4,4-dimethyl-6-(2-thienylcarbonyl)-1,4,5,6-tetrahydropyrrolo[2,3-d]azepine-8-carboxylate]", "EC50": 22}
{"smiles": "CC(C)OC(=O)C1=CN(C(=O)c2cccc(C(F)(F)F)c2)CC(C)(C)c2cc(C#N)[nH]c21", "note": "[Example 8, iso-Propyl 2-cyano-4,4-dimethyl-6-[3-(trifluoromethyl)benzoyl]-1,4,5,6-tetrahydropyrrolo[2,3-d]azepine-8-carboxylate]", "EC50": 8}
{"smiles": "CC(C)OC(=O)C1=CN(C(=O)C2CCOCC2)CC(C)(C)c2cc(C#N)[nH]c21", "note": "[Example 9, iso-Propyl 2-cyano-4,4-dimethyl-6-(tetrahydro-2H-pyran-4-ylcarbonyl)-1,4,5,6-tetrahydropyrrolo[2,3-d]azepine-8-carboxylate]", "EC50": 8.9}
{"smiles": "CC(C)OC(=O)C1=CN(C(=O)c2ccc(F)c(F)c2)CC2(CCOCC2)c2cc(C#N)[nH]c21", "note": "[Example 10, iso-Propyl 2′-cyano-6′-(3,4-difluorobenzoyl)-2,3,5,5′,6,6′-hexahydro-1′H-spiro[pyran-4,4′-pyrrolo[2,3-d]azepine]-8′carboxylate]", "EC50": 86}
